Measured values: the supplement of paper PMC10307832

How the values were obtained:
Assay in all cases: relative viability (nuclei count vs DMSO), 5 days (fraction); higher = more cells survive
[1] = compound: CC(=O)Nc1cccc(-n2c(=O)n(C3CC3)c(=O)c3c(Nc4ccc(I)cc4F)n(C)c(=O)c(C)c32)c1 [Trametinib] + N=C(N)NC(=N)NCCc1ccccc1 [Phenformin] (partner 250 µM)
In short: (§1)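 Lung cancer cell lines in 1536-well plates got either a single drug or a fixed anchor-drug dose together with five library-drug doses (not always all listed) in √10 steps, by pin tool, on the day after seeding. Nuclei were counted after 5 days, and relative viability is the treated-to-vehicle ratio of nuclei counts. Values are medians of duplicate plates.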

[2] = compound: CN1C=C(C2=CC=CC=C21)/C=C\3/C4=C(C=CC=N4)NC3=O + Cc1nc(NC(=O)N2CCC[C@H]2C(N)=O)sc1-c1ccnc(C(C)(C)C(F)(F)F)c1 [Alpelisib] (partner 2 µM)
In short: as §1

[3] = compound: CN1C=C(C2=CC=CC=C21)/C=C\3/C4=C(C=CC=N4)NC3=O + CC(=O)c1c(C)c2cnc(Nc3ccc(N4CCNCC4)cn3)nc2n(C2CCCC2)c1=O [Palbociclib] (partner 0.5 µM)
In short: as §1

[4] = compound: CC(=O)Nc1cccc(-n2c(=O)n(C3CC3)c(=O)c3c(Nc4ccc(I)cc4F)n(C)c(=O)c(C)c32)c1 [Trametinib] + O=C(CCCCCCC(=O)Nc1ccccc1)NO [Vorinostat] (partner 1 µM)
In short: as §1

| Cell Line | relative viability ([1]; first compound 0.0025 µM) | relative viability ([1]; first compound 0.007906 µM) | relative viability ([1]; first compound 0.025 µM) | relative viability ([1]; first compound 0.07906 µM) | relative viability ([1]; first compound 0.25 µM) | relative viability ([2]; first compound 0.02 µM) | relative viability ([2]; first compound 0.06325 µM) | relative viability ([2]; first compound 0.2 µM) | relative viability ([2]; first compound 0.6325 µM) | relative viability ([2]; first compound 2 µM) | relative viability ([3]; first compound 0.02 µM) | relative viability ([3]; first compound 0.06325 µM) | relative viability ([3]; first compound 0.2 µM) | relative viability ([3]; first compound 0.6325 µM) | relative viability ([3]; first compound 2 µM) | relative viability ([4]; first compound 0.0025 µM) | relative viability ([4]; first compound 0.007906 µM) | relative viability ([4]; first compound 0.025 µM) | relative viability ([4]; first compound 0.07906 µM) | relative viability ([4]; first compound 0.25 µM) |
| --- | --- | --- | --- | --- | --- | --- | --- | --- | --- | --- | --- | --- | --- | --- | --- | --- | --- | --- | --- | --- |
| NCI-H1755 | 0.593 | 0.587 | 0.608 | 0.594 | 0.512 | 0.872 | 0.922 | 0.944 | 0.836 | 0.858 | 0.434 | 0.463 | 0.431 | 0.433 | 0.427 | 0.829 | 0.698 | 0.686 | 0.735 | 0.747 |
| LOU-NH91 | 0.685 | 0.752 | 0.661 | 0.364 | 0.294 | 0.658 | 0.698 | 0.598 | 0.698 | 0.69 | 0.427 | 0.524 | 0.512 | 0.506 | 0.51 | 0.893 | 0.802 | 0.766 | 0.809 | 0.411 |
| EMC-BAC-2 | 0.582 | 0.565 | 0.443 | 0.475 | 0.31 | 0.673 | 0.452 | 0.736 | 0.768 | 0.799 | 0.471 | 0.513 | 0.504 | 0.521 | 0.535 | 0.742 | 0.602 | 0.448 | – | 0.326 |
| NCI-H2023 | 0.34 | 0.393 | 0.349 | 0.289 | 0.167 | 0.649 | 0.594 | 0.542 | 0.516 | 0.53 | 0.412 | 0.369 | – | 0.45 | 0.372 | 0.683 | 0.477 | 0.472 | 0.541 | 0.136 |
| EKVX | 0.234 | 0.209 | 0.198 | 0.192 | 0.24 | 0.765 | 0.763 | 0.795 | 0.725 | 0.703 | 0.323 | – | – | 0.273 | 0.732 | 0.63 | 0.442 | 0.365 | 0.405 | 0.321 |
| NCI-H2085 | 0.588 | 0.509 | 0.332 | 0.464 | 0.25 | 0.967 | 0.849 | 1.01 | 0.852 | 0.949 | 0.452 | 0.473 | 0.508 | 0.471 | 0.461 | 0.695 | 0.718 | 0.501 | 0.609 | 0.563 |
| NCI-H3122 | 0.381 | 0.296 | 0.282 | 0.243 | 0.233 | 0.727 | 0.764 | 0.722 | 0.802 | 1 | 0.137 | 0.181 | 0.202 | 0.183 | 0.235 | 0.978 | 0.678 | 0.204 | 0.361 | 0.518 |
| HCC-827 | 0.374 | 0.373 | 0.334 | 0.313 | 0.313 | 0.969 | 0.992 | – | 0.978 | 0.984 | 0.444 | 0.462 | – | 0.475 | 0.5 | 0.903 | 0.876 | 0.71 | 0.677 | 0.502 |
| HARA | 0.399 | 0.426 | 0.386 | 0.373 | 0.214 | 0.677 | 0.812 | 0.783 | 0.63 | 0.734 | 0.257 | 0.297 | 0.192 | 0.257 | 0.227 | 0.387 | 0.403 | 0.298 | 0.251 | 0.154 |
| NCI-H441 | 0.744 | 0.836 | 0.501 | 0.561 | 0.252 | 0.795 | – | 0.898 | 0.91 | 0.881 | 0.199 | 0.163 | 0.189 | 0.194 | 0.193 | 0.819 | 0.797 | 0.722 | 0.749 | 0.608 |
| SK-MES-1 | 0.64 | 0.64 | 0.481 | 0.43 | 0.287 | 0.763 | 0.853 | 0.84 | 0.963 | 1.02 | 0.243 | 0.325 | 0.316 | 0.321 | 0.264 | 0.994 | 0.894 | 0.744 | 0.511 | 0.337 |
| HCC-15 | 0.361 | 0.229 | 0.18 | 0.179 | 0.145 | 1.01 | 0.848 | 0.808 | 0.889 | 0.958 | 0.708 | 0.733 | 0.724 | 0.685 | 0.746 | 0.814 | 0.549 | 0.395 | 0.276 | 0.275 |
| ABC-1 | 0.236 | 0.259 | 0.226 | 0.213 | 0.221 | 1.05 | 0.785 | 0.84 | 0.714 | 0.923 | 0.52 | 0.76 | 0.789 | 0.593 | 0.738 | 0.798 | 0.898 | 0.562 | 0.613 | 0.349 |
| EPLC-272H | 0.273 | 0.194 | 0.171 | 0.15 | 0.128 | 1.14 | 0.752 | – | 0.83 | 0.835 | 0.331 | 0.271 | – | 0.336 | 0.274 | 0.455 | 0.368 | 0.233 | 0.148 | 0.162 |
| NCI-H2009 | 0.394 | 0.302 | 0.231 | 0.213 | 0.215 | 1.2 | 1.14 | 1.22 | 1.24 | 1.05 | 0.189 | 0.198 | 0.202 | 0.198 | 0.201 | 0.76 | 0.634 | 0.341 | 0.354 | 0.336 |
| NCI-H661 | 0.298 | 0.289 | 0.257 | 0.28 | 0.246 | 0.889 | 0.591 | 0.423 | 0.402 | 0.591 | 0.425 | 0.406 | 0.343 | 0.389 | 0.37 | 0.742 | 0.753 | 0.782 | 0.782 | 0.724 |
